Laboratory results from US20240166654A1, “RUXOLITINIB CRYSTAL AND PHARMACEUTICAL COMPOSITION THEREOF” (ZHEJIANG AUSUN PHARMACEUTICAL CO., LTD., priority 2022, published 2024).

Tests used:
[1] = Stability of solid forms in stabilization chamber (appearance or XRPD versus initial solid form); assay type: physicochemical; details: for Physical stability (solid form): 3.0 g sample, appearance or XRPD compared with initial solid form
Protocol: 3.0 g of ruxolitinib free base in different solid forms was stored in a stabilization chamber, and placed in the condition that the temperature and humidity were controlled to at 25° C., 60% RH, and 40° C., 75% RH for […], respectively. The samples were analyzed by appearance or XRPD to check its solid form and compared with its initial solid form.

[2] = Storage of crystal in polyethylene self-sealing bag, XRPD pattern; assay type: physicochemical; details: 30-35° C. for 3 months, transparent polyethylene self-sealing bag, 10.0 g
Protocol: In addition, 10.0 g of crystal of compound of formula I of Example 1 was placed in a transparent polyethylene self-sealing bag and allowed to stand at 30-35° C. for 3 months.

Structure (SMILES)	Physical stability (hygroscopicity observation) ([1]; 25° C./60%-RH, 2 hours)	Physical stability (solid form) ([1]; 25° C./60%-RH, 2 hours)	Physical stability (hygroscopicity observation) ([1]; 40° C./75%-RH, 8 hours)	Physical stability (solid form) ([1]; 40° C./75%-RH, 8 hours)	Stability of crystalline form by XRPD [2]	Stability compared with ruxolitinib foam and amorphous form of Example 5 ([1]; 25° C., 60% RH for 2 hours and 40° C., 75% RH for 8 hours, summary of Table 4)
N#CC[C@H](C1CCCC1)n1cc(-c2ncnc3[nH]ccc23)cn1 [Foam]	hygroscopic	Change of solid form,	hygroscopic	Change of solid form,		
N#CC[C@H](C1CCCC1)n1cc(-c2ncnc3[nH]ccc23)cn1 [Compound of Formula I of Example 1, ((3R)-3-cyclopentyl-3-[4-(7H-pyrrolo[2,3-d]pyrimidin-4-yl)pyrazol-1-yl]propionitrile)·2H2O]		No change of solid form		No change of solid form	remains stable	better stability
